Reference: patent US10086086B2, “Payload molecule delivery using molecular rebar” (Molecular Rebar Design, LLC, priority 2014, dated 2018)
Where two headings read alike, the source gives them in different places. Blank lines part the entries; values can stand above or below the molecule they belong to.

Columns and labels:
[1] = Displacement of adsorbed payload molecule from discrete carbon nanotubes by later addition of PVOH; format: physicochemical
[2] = in water, cited from earlier work
[3] = not given; remark: listed apart in the source

Molecule: CCOP(=O)(Cc1ccc(OC)cc1)OCC [D4MBP]
D4MBP originally residing on the outermost wall displaced by the PVOH, estimated ([1]; Example 10, calculation as in Example 1): about 80%

Molecule: NC(=O)CC[C@@H]1NC(=O)[C@H](Cc2ccccc2)NC(=O)[C@H](Cc2ccc(O)cc2)NC(=O)CCSSC[C@@H](C(=O)N2CCC[C@H]2C(=O)N[C@H](CCCN=C(N)N)C(=O)NCC(N)=O)NC(=O)[C@H](CC(N)=O)NC1=O [Desmopressin]
Hydrodynamic Radius [2]: 0.88 nm

adsorbed niacin released by subsequent addition of PVOH ([1]; Example 4: PVOH added after niacin adsorption equilibrium, weight ratio 0.23 PVOH:1 discrete carbon nanotubes): 25 % wt.
ratio of niacin adsorbed internally versus externally (times less internally) (Example 1, assumes same adsorption concentration on both walls): about 2.4 times
niacin adsorbed, less than in Example 1 (Example 3 (PVOH added at the same time) versus Example 1 (no PVOH)): ~30%
reduction of the amount of niacin adsorbed on the discrete carbon nanotubes after sodium hydroxide addition ([3]; Example 7: PVOH-encapsulated, 2 ml 0.1 Molar sodium hydroxide, overall period 40 + 55 + 110 minutes, pH about 4.2 to 8): about 42%
Molecule: O=C(O)c1cccnc1 [Niacin, Pyridine-3-carboxylic acid]
amount of niacin adsorbed after 5 hours (Example 2: nanotubes with 0.05% weight oxidized species, otherwise as Example 1): 0.088 g niacin/g discrete carbon nanotubes
concentration of adsorbed niacin after a further 85 minutes (Example 5: nanotubes pretreated with PVOH about 20 hours, then niacin added, 100 + 85 minutes): 0.0226 g niacin/g of discrete carbon nanotubes
final adsorption of niacin after sodium hydroxide addition ([3]; Example 6: no PVOH, 2 ml 0.1 molar sodium hydroxide added after equilibrium, pH from about 4 to about 7.3, about 180 minutes): 0.03 g niacin/g discrete carbon nanotubes
equilibrium niacin concentration on discrete carbon nanotubes before pH increase ([3]; Example 7: niacin then PVOH, PVOH to discrete carbon nanotubes 0.3:1 by weight): 0.0476 g niacin/g discrete carbon nanotubes
Hydrodynamic Radius [2]: 0.33 nm

Molecule: CN1CCCC1c1cccnc1 (centres unmarked) [Nicotine]
Hydrodynamic Radius [2]: 0.38 nm

Molecule: Bovine serum albumin
Hydrodynamic Radius [2]: 7.0 nm
Hydrodynamic Radius ([2]; listed as bovine serum albumin): 7 nm

Molecule: Cytochrome C
Hydrodynamic Radius [2]: 2.64 nm

Molecule: Insulin
Hydrodynamic Radius [2]: 2.1 nm

B1: Myoglobin (protein, UniProt P68082 2-154, looked up)
Myoglobin: GLSDGEWQQVLNVWGKVEADIAGHGQEVLIRLFTGHPETLEKFDKFKHLKTEAEMKASEDLKKHGTVVLTALGGILKKKGHHEAELKPLAQSHATKHKIPIKYLEFISDAIIHVLHSKHPGDFGADAQGAMTKALELFRNDIAAKYKELGFQG
Hydrodynamic Radius [2]: 3.34 nm
